This note sets out measurements from EPA's ToxValDB 9.5 (doi:10.2903/j.efsa.2018.5150).

In series [1] the test system is Anas platyrhynchos. The note with it: reproductive.
The test system of series [2] is Apis mellifera. The following applies: acute, mortality.
Series [3] relates to Bibionidae. The note with it: chronic/long-term; duration: 28 days.
Series [4] concerns Colinus virginianus. The following applies: acute; oral; mortality.
Series [5] has as its system Daphnia magna. The note with it: chronic/long-term; duration: 21 days.
For series [6], the system named is Folsomia candida. The note with it: chronic/long-term; duration: 28 days; reproduction.
Series [7] concerns Oncorhynchus mykiss. The following applies: acute; duration: 96 hours; mortality.
Series [8] relates to Rattus norvegicus.
In series [9] the test system is Tagia sp. The note with it: chronic/long-term; duration: 56 days; reproduction.
The test system of series [10] is Aphidius rhopalosiphi. As to the kind of experiment: LR50; higher = less toxic. The note with it: acute; mortality.

≈ marks a conversion by molar mass, not a printed value. Some results are limits rather than exact numbers.

Turning to `CCOC(=O)Nc1cccc(OC(=O)Nc2ccccc2)c1` [Desmedipham], the NOAEL (commonly the highest tested level that showed no adverse finding) amounted to 11 mg/kg-day in series [1]; 3.2 mg/kg-day in series [8] (chronic, duration: 2 years, hematological); 4 mg/kg-day in series [8] (reproduction developmental, M, reproduction); 5.2 mg/kg-day in [8] (subchronic, duration: 90 days, oral, hematological). The LD50 in [2] (dermal) was above 100 µg/piece; in series [2] (oral, unspecified), above 101 µg/piece; in series [4], above 2000 mg/kg-day; in [8] (acute, oral, mortality), above 5000 mg/kg-day. The NOEC in [3] is 0.14 mg/L; in series [5] it was 0.02 mg/L; in series [6] it was 158 mg/kg; in [9], 64 mg/kg. The LC50 (commonly the concentration lethal to half of the exposed cells or organisms) in series [7] is 1.41 µg/mL (≈ 4.7 µM). The LR50 in series [10] was 63.8 g/ha.
